Experimental data: patent US4657913A, “Trifluoro- quinoline -3-carboxylic acids and their use as anti-bacterial agents” (Warner-Lambert Company, priority 1985, dated 1987)
Converted amounts (≈) assume the structure as drawn.

Key:
Experiment in all cases: microtitration dilution method, in vitro antibacterial activity (MIC)
Assay type in all cases: cell-based
[1] = test system: Enterobacter cloacae MA 2646; conditions: MA2646, read-out: Minimal Inhibitory Concentration MIC
Description: (§1) The compounds of the invention display antibacterial activity when tested by the microtitration dilution method as described in Heifetz, et al, Antimicr. Agents & Chemoth., 6, 124 (1974), which is incorporated herein by reference.
(§2) By use of the above referenced method, the following minimum inhibitory concentration values (MICs in μg/ml) were obtained for representative compounds of the invention.

[2] = test system: Escherichia coli Vogel; conditions: read-out: Minimal Inhibitory Concentration MIC
Description: as §1, §2

[3] = test system: Klebsiella pneumoniae MGH-2; conditions: MGH2, read-out: Minimal Inhibitory Concentration MIC
Description: as §1, §2

[4] = test system: Proteus rettgeri M 1771; conditions: Providencia rettgeri, M1771, read-out: Minimal Inhibitory Concentration MIC
Description: as §1, §2

[5] = test system: Pseudomonas aeruginosa UI-18; conditions: UI18, read-out: Minimal Inhibitory Concentration MIC
Description: as §1, §2

[6] = test system: Staphlococcus aureus H 228; conditions: read-out: Minimal Inhibitory Concentration MIC
Description: as §1, §2

[7] = test system: Staphylococcus aureus UC-76; conditions: UC76, read-out: Minimal Inhibitory Concentration MIC
Description: as §1, §2

[8] = test system: Streptococcus faecalis MGH-2; conditions: Enterococcus faecalis, MGH2, read-out: Minimal Inhibitory Concentration MIC
Description: as §1, §2

[9] = test system: Streptococcus pneumoniae SV-1; conditions: SV1, read-out: Minimal Inhibitory Concentration MIC
Description: as §1, §2

[10] = test system: Streptococcus pyogenes C-203; conditions: C203, read-out: Minimal Inhibitory Concentration MIC
Description: as §1, §2

MIC [1]	MIC [2]	MIC [3]	MIC [4]	MIC [5]	MIC [6]	MIC [7]	MIC [8]	MIC [9]	MIC [10]	Structure (SMILES)
0.8 µg/mL (≈ 2.17 µM)	0.8 µg/mL (≈ 2.17 µM)	0.8 µg/mL (≈ 2.17 µM)	3.1 µg/mL (≈ 8.39 µM)	3.1 µg/mL (≈ 8.39 µM)	1.6 µg/mL (≈ 4.33 µM)	0.8 µg/mL (≈ 2.17 µM)	0.8 µg/mL (≈ 2.17 µM)	≤ 0.1 µg/mL	≤ 0.1 µg/mL	CCn1cc(C(=O)O)c(=O)c2c(F)c(F)c(N3CCC(CN)C3)c(F)c21 (centres unmarked) [Ex. 1A, 7-[3-(Aminomethyl)-1-pyrrolidinyl]-1-ethyl-5,6,8-trifluoro-1,4-dihydro-4-oxo-3-quinolinecarboxylic acid]
0.8 µg/mL (≈ 1.95 µM)	0.8 µg/mL (≈ 1.95 µM)	1.6 µg/mL (≈ 3.91 µM)	6.3 µg/mL (≈ 15.4 µM)	6.3 µg/mL (≈ 15.4 µM)	0.8 µg/mL (≈ 1.95 µM)	0.2 µg/mL (≈ 0.489 µM)	1.6 µg/mL (≈ 3.91 µM)	0.8 µg/mL (≈ 1.95 µM)	1.6 µg/mL (≈ 3.91 µM)	CCn1cc(C(=O)O)c(=O)c2c(F)c(F)c(N3CCC4(CCN(C)C4)C3)c(F)c21 (centres unmarked) [Ex. 1B, 1-Ethyl-5,6,8-trifluoro-1,4-dihydro-7-(7-methyl-2,7-diazaspiro[4.4]nonan-2-yl)-4-oxo-3-quinolinecarboxylic acid]
1.6 µg/mL (≈ 4.17 µM)	0.4 µg/mL (≈ 1.04 µM)	0.8 µg/mL (≈ 2.09 µM)	6.3 µg/mL (≈ 16.4 µM)	3.1 µg/mL (≈ 8.09 µM)	0.8 µg/mL (≈ 2.09 µM)	0.05 µg/mL (≈ 0.13 µM)	0.8 µg/mL (≈ 2.09 µM)	0.4 µg/mL (≈ 1.04 µM)	0.2 µg/mL (≈ 0.522 µM)	CCn1cc(C(=O)O)c(=O)c2c(F)c(F)c(N3CCC(CNC)C3)c(F)c21 (centres unmarked) [Ex. 1C, 1-Ethyl-5,6,8-trifluoro-1,4-dihydro-7-[3-[(methylamino)methyl]-1-pyrrolidinyl]-4-oxo-3-quinolinecarboxylic acid]
0.4 µg/mL (≈ 1.01 µM)	0.4 µg/mL (≈ 1.01 µM)	0.8 µg/mL (≈ 2.01 µM)	0.8 µg/mL (≈ 2.01 µM)	6.3 µg/mL (≈ 15.9 µM)	0.4 µg/mL (≈ 1.01 µM)	0.013 µg/mL (≈ 0.0327 µM)	0.2 µg/mL (≈ 0.503 µM)	0.2 µg/mL (≈ 0.503 µM)	0.2 µg/mL (≈ 0.503 µM)	CCNCC1CCN(c2c(F)c(F)c3c(=O)c(C(=O)O)cn(CC)c3c2F)C1 (centres unmarked) [Ex. 1D, 1-Ethyl-7-[3-[(ethylamino)methyl]-1-pyrrolidinyl]-5,6,8-trifluoro-1,4-dihydro-4-oxo-3-quinolinecarboxylic acid]
0.4 µg/mL (≈ 0.977 µM)	0.2 µg/mL (≈ 0.489 µM)	0.4 µg/mL (≈ 0.977 µM)	1.6 µg/mL (≈ 3.91 µM)	3.1 µg/mL (≈ 7.57 µM)	0.2 µg/mL (≈ 0.489 µM)	0.025 µg/mL (≈ 0.0611 µM)	0.2 µg/mL (≈ 0.489 µM)	0.2 µg/mL (≈ 0.489 µM)	0.1 µg/mL (≈ 0.244 µM)	CCNCC1CCN(c2c(F)c(F)c3c(=O)c(C(=O)O)cn(C4CC4)c3c2F)C1 (centres unmarked) [Ex. 2A, 1-Cyclopropyl-7-[3-[(ethylamino)methyl]-1-pyrrolidinyl]-5,6,8-trifluoro-1,4-dihydro-4-oxo-3-quinolinecarboxylic acid]
